From ChEMBL document CHEMBL2074019, “Functional characterization of human organic anion transporting polypeptide B (OATP-B) in comparison with liver-specific OATP-C” (Pharm Res, 2001)
Counter-ions that a name gives are not always drawn.

What was measured:
Type in all cases: functional, cell-based
[1] = target: T1, Solute carrier organic anion transporter family member 1B1 (Homo sapiens, UniProt Q9Y6L6); assay: TP_TRANSPORTER: inhibition of E217betaG uptake in OATP-C-expressing HEK293 cells
T1 sequence (Q9Y6L6 whole entry): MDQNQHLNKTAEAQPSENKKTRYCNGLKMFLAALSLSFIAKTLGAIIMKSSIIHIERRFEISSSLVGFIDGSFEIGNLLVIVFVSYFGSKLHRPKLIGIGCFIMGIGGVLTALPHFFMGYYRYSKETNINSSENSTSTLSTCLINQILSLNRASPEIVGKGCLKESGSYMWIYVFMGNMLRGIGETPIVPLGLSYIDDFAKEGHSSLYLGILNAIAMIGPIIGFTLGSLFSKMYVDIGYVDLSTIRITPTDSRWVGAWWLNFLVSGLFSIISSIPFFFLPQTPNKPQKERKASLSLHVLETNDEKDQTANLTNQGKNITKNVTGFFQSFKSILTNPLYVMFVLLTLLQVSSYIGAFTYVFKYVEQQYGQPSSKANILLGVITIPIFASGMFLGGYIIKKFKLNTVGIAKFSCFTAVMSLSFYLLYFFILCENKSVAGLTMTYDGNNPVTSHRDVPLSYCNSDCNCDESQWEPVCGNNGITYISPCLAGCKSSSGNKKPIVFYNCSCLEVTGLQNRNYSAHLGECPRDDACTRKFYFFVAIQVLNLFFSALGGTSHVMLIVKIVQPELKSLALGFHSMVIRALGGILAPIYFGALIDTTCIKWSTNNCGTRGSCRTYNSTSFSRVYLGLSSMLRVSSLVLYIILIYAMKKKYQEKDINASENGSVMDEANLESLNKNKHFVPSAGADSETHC

[2] = target: T1, Solute carrier organic anion transporter family member 1B1; assay: TP_TRANSPORTER: inhibition of E1S uptake (E1S: 0.04 uM, E217betaG: 100 uM) in OATP-C-expressing HEK293 cells; details: hek293, 100 µM
[3] = target: T1, Solute carrier organic anion transporter family member 1B1; assay: TP_TRANSPORTER: inhibition of E1S uptake (E1S: 0.04 uM, E2 3SO4 17betaG: 100 uM) in OATP-C-expressing HEK293 cells; details: hek293, 100 µM
[4] = target: T2, Solute carrier organic anion transporter family member 2B1 (Homo sapiens, UniProt O94956); assay: TP_TRANSPORTER: inhibition of E1S uptake (E1S: 0.04 uM, #Estrone: 100 uM) in OATP-B-expressing HEK293 cells; details: hek293, 100 µM
T2 sequence (O94956 whole entry): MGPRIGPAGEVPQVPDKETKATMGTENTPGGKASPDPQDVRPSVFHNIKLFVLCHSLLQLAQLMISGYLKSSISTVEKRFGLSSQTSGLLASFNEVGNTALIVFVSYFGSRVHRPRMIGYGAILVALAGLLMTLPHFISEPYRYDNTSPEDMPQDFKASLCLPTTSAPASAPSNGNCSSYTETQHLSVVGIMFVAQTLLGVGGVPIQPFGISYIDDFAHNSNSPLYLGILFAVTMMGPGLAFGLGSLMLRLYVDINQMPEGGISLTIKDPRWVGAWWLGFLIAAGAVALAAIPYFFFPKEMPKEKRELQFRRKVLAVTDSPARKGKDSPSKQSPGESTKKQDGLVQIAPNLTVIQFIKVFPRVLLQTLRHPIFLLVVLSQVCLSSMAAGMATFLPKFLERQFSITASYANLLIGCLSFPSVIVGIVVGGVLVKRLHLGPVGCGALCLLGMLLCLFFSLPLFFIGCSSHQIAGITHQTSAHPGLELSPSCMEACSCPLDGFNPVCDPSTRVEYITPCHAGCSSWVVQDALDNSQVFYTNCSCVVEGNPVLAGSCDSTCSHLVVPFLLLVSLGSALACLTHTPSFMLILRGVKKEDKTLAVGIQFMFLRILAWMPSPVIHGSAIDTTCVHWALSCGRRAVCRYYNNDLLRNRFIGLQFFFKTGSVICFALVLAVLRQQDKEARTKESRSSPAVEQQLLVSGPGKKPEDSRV

[5] = target: T1, Solute carrier organic anion transporter family member 1B1; assay: TP_TRANSPORTER: inhibition of E1S uptake (E1S: 0.04 uM, #Estrone: 100 uM) in OATP-C-expressing HEK293 cells; details: hek293, 100 µM
[6] = target: T1, Solute carrier organic anion transporter family member 1B1; assay: TP_TRANSPORTER: inhibition of E1S uptake (E1S: 0.04 uM, Estrone-3-glucuronide: 100 uM) in OATP-C-expressing HEK293 cells; details: hek293, 100 µM
[7] = target: T2, Solute carrier organic anion transporter family member 2B1; assay: TP_TRANSPORTER: inhibition of E1S uptake (E1S: 0.04 uM, beta-Estradiol: 100 uM) in OATP-B-expressing HEK293 cells; details: hek293, 100 µM
[8] = target: T1, Solute carrier organic anion transporter family member 1B1; assay: TP_TRANSPORTER: inhibition of E1S uptake (E1S: 0.04 uM, beta-Estradiol: 100 uM) in OATP-C-expressing HEK293 cells; details: hek293, 100 µM
[9] = target: T1, Solute carrier organic anion transporter family member 1B1; assay: TP_TRANSPORTER: inhibition of E1S uptake (E1S: 0.04 uM, Estradiol-3-sulfate: 100 uM) in OATP-C-expressing HEK293 cells; details: hek293, 100 µM
[10] = target: T2, Solute carrier organic anion transporter family member 2B1; assay: TP_TRANSPORTER: inhibition of E1S uptake (E1S: 0.04 uM, Estradiol-3-sulfate: 100 uM) in OATP-B-expressing HEK293 cells; details: hek293, 100 µM
[11] = substrate: C[C@]12CC[C@@H]3c4ccc(OS(=O)(=O)O)cc4CC[C@H]3[C@@H]1CCC2=O; assay: TP_TRANSPORTER: uptake in OATP-B-expressing HEK293 cells
[12] = substrate: C[C@]12CC[C@@H]3c4ccc(O)cc4CC[C@H]3[C@@H]1CC[C@@H]2O[C@@H]1O[C@H](C(=O)O)[C@@H](O)[C@H](O)[C@H]1O; assay: TP_TRANSPORTER: uptake in OATP-C-expressing HEK293 cells

## C[C@]12CC[C@@H]3c4ccc(O)cc4CC[C@H]3[C@@H]1CC[C@@H]2O[C@@H]1O[C@H](C(=O)O)[C@@H](O)[C@H](O)[C@H]1O [ESTRADIOL 17B GLUCURONIDE]
[1]
  Ki: 4430 nM
[2]
  Activity: inhibitor [(at a rough estimate) <1 % of control]

## C[C@]12CC[C@@H]3c4ccc(OS(=O)(=O)O)cc4CC[C@H]3[C@@H]1CC[C@@H]2O[C@@H]1O[C@H](C(=O)O)[C@@H](O)[C@H](O)[C@H]1O [ESTRADIOL GLUCURONIDE SULFATE]
[3]
  Activity: inhibitor [(at a rough estimate) 40 % of control]

## C[C@]12CC[C@@H]3c4ccc(O)cc4CC[C@H]3[C@@H]1CCC2=O [ESTRONE]
[4]
  Activity: inhibitor [(at a rough estimate) 45 % of control]
[5]
  Activity: inhibitor [(at a rough estimate) 40 % of control]

## C[C@]12CC[C@@H]3c4ccc(O[C@@H]5O[C@H](C(=O)O)[C@@H](O)[C@H](O)[C@H]5O)cc4CC[C@H]3[C@@H]1CCC2=O
[6]
  Activity: inhibitor [(at a rough estimate) 40 % of control]

## C[C@]12CC[C@@H]3c4ccc(O)cc4CC[C@H]3[C@@H]1CC[C@@H]2O [ESTRADIOL]
[7]
  Activity: inhibitor [(at a rough estimate) 60 % of control]
[8]
  Activity: inhibitor [(at a rough estimate) 35 % of control]

## C[C@]12CC[C@@H]3c4ccc(OS(=O)(=O)O)cc4CC[C@H]3[C@@H]1CC[C@@H]2O
[9]
  Activity: inhibitor [(at a rough estimate) 10 % of control]
[10]
  Activity: inhibitor [(at a rough estimate) 30 % of control]

## C[C@]12CC[C@@H]3c4ccc(OS(=O)(=O)O)cc4CC[C@H]3[C@@H]1CCC2=O [ESTRONE SULFURIC ACID]
[1]
  Ki: 45.8 nM

B1: Solute carrier organic anion transporter family member 2B1 (Homo sapiens) (protein)
chain: T2 sequence (O94956 whole entry)
[11]
  Km: 12.5 µM

B2: Solute carrier organic anion transporter family member 1B1 (Homo sapiens) (protein)
chain: T1 sequence (Q9Y6L6 whole entry)
[12]
  Km: 3.71 µM
